Patent publication US9290688B2, “Alkaline microbial enhanced oil recovery” (GEO FOSSIL FUELS, LLC, priority 2011, dated 2016)

How the values were obtained:
[1] = tested on: Rhodococcus rhodochrous ATCC #53968; test: End of digestion: oil and aqueous volumes, acid number by alcoholic alkaline extraction and back titration; type: cell-based; settings: one ml of oil, alcoholic alkaline extraction, back titration; acrylic acid value per gram of oil emulsion
Description: An oil degrading microorganism was used to evaluate the use of chemical inhibitors to slow the utilization of hydrocarbons in petroleum. In a non-limiting example, three different chemical compounds that have been reported to inhibit beta-oxidation were tested in oil and culture medium on a petroleum sample with a strain of Rhodococcus rhodochrous ATCC #53968 in m9 minimal medium. To test the ability of each chemical inhibitor to slow the consumption of fatty acids a culture of bacteria was grown on a crude oil sample for a period of three days with crude petroleum oil as the only carbon source. Four separate flasks were set up, each with an oil to aqueous media ratio of 1 to 5 (10 ml of crude oil to 50 ml of culture medium). Each of the three chemical inhibitors was added to a separate flask and a fourth flask was allowed to digest without the addition of a chemical inhibitor as a control. The flasks were shaken at a room temperature of about 25° C. under aerobic conditions. The progress of the microbial digestion was monitored by the optical density at 600 nm and by visual inspection of the brown oil color in the aqueous phase. Three days after the addition of inhibitors, or a total of six days of incubation with oil, a small sample of oil (0.31 g) was removed. A second sample of the same size was remover after another 6 days. The organic acids were extracted from each oil sample with 1% NaOH in 70% ethanol. […]
At the end of the experiment the oil and water were separated and the volume determined. […] This would have under reported the amount of methyl esters determined by GC analysis. The amount of aqueous phase was determined to be 22.5 ml for the acrylic acid sample and 46 ml, 48 ml and 47.5 ml for the others. […] The calculated acid number for the uninhibited digestion was 5 mg of KOH per gram. The other two inhibited digestions were analyzed to be 4.5 mg for the 2-bromooctanoic acid and 6.5 for the 2-bromohexadecanoic acid inhibited digestion. The undigested oil was determined to have an acid number of 6.5 mg of KOH by analysis of a one gram sample and a 10 gram sample. […]

[2] = tested on: Rhodococcus rhodochrous ATCC #53968; test: Growth of bacteria on crude oil with inhibitors, optical density at 600 nm; type: cell-based
Description: An oil degrading microorganism was used to evaluate the use of chemical inhibitors to slow the utilization of hydrocarbons in petroleum. In a non-limiting example, three different chemical compounds that have been reported to inhibit beta-oxidation were tested in oil and culture medium on a petroleum sample with a strain of Rhodococcus rhodochrous ATCC #53968 in m9 minimal medium. To test the ability of each chemical inhibitor to slow the consumption of fatty acids a culture of bacteria was grown on a crude oil sample for a period of three days with crude petroleum oil as the only carbon source. Four separate flasks were set up, each with an oil to aqueous media ratio of 1 to 5 (10 ml of crude oil to 50 ml of culture medium). Each of the three chemical inhibitors was added to a separate flask and a fourth flask was allowed to digest without the addition of a chemical inhibitor as a control. The flasks were shaken at a room temperature of about 25° C. under aerobic conditions. The progress of the microbial digestion was monitored by the optical density at 600 nm and by visual inspection of the brown oil color in the aqueous phase. Three days after the addition of inhibitors, or a total of six days of incubation with oil, a small sample of oil (0.31 g) was removed. A second sample of the same size was remover after another 6 days. The organic acids were extracted from each oil sample with 1% NaOH in 70% ethanol. The samples were shaken vigorously for one minute. The aqueous extract material was then extracted with hexane to remove any trace of oil. The samples of extracted organic acids were then dried under vacuum and converted to methyl esters with BF3 in methanol.
Digestion with the bacteria increases the total amount of carboxylic acids in all the samples. The digestions with the chemical beta-oxidation inhibitors produce about the same or a little more total methyl ester peaks than the bacterial digestion without an inhibitor. […] The later eluting peaks increase at a faster rate with the inhibitors than without. For example, the 12 day sample with no inhibitor increase from 5.9 to 45.9 area units for peaks up to 13 minutes. The sample with the acrylic acid inhibitor has an increase of from 5.9 to 43.7 area units, which is less than without inhibitor. The later eluting peaks increase from 3.6 to 14.3 without the inhibitor, but with acrylic acid the later peak areas increase to 22.5 area units. […] After 6 days of digestion the optical density had reached 2.23 for the uninhibited digestion as compared to 0.49 for the acrylic acid inhibited sample and 1.84 for the 2-bromooctanoic acid and 2.4 for the 2-bromohexadeconoic acid. After 12 days of digestion the uninhibited sample had reached 4.0 and the acrylic acid had increased to 1.7 and 2.2 and 2.4 for the other two inhibitors. Therefore, by this experimental analysis one can determine which inhibitors increase the carboxylic acid content or the acid number of the oil fastest with the least amount of oil consumption. The oil consumption can be determined by quantitation of remaining oil or by growth of bacteria were oil is the only carbon source. It appears that all the inhibitors helped reduce the utilization of fatty acids and the consumption of oil while producing an increase in acid number.

[3] = after 6 days of digestion, crude oil only carbon source

| SMILES | final analysis acid number [1] [mg KOH per gram] | optical density [2, 3] | optical density ([2]; after 12 days of digestion) |
| --- | --- | --- | --- |
| C=CC(=O)O [AA, acrylic acid] | 10 | 0.49 | 1.7 |
| CCCCCCC(Br)C(=O)O (stereo not drawn) [Br C8, 2-bromooctanoic acid] | 4.5 | 1.84 | 2.2 |
